In patent US20230058623A1, “NOVEL HETEROARYL-TRIAZOLE COMPOUNDS AS PESTICIDES” (Bayer Aktiengesellschaft, priority 2019, published 2023):

Legend:
Assay type in all cases: in vivo
[1] = test system: adult engorged female ticks (Rhipicephalus microplus); assay: Rhipicephalus (Boophilus) microplus injection test; conditions: 168 h, application rate 4 μg/tick, egg deposition after 7 days, read-out: activity (efficacy: infertile eggs)
Method: Rhipicephalus (Boophilus) microplus—Injection Test
Solvent: dimethyl sulfoxide
To produce a suitable preparation of active compound, 10 mg of active compound are dissolved in 0.5 mL solvent, and the concentrate is diluted with solvent to the desired concentration.
Five adult engorged female ticks (Rhipicephalus microplus) are injected with 1 μL compound solution into the abdomen. The ticks are transferred into replica plates and incubated in a climate chamber.
After 7 days egg deposition of fertile eggs is monitored. Eggs where fertility is not visible are stored in a climate chamber till hatching after about 42 days. An efficacy of 100% means all eggs are infertile; 0% means all eggs are fertile.

[2] = test system: green peach aphid (Myzus persicae); assay: Myzus persicae oral test; conditions: 120 h, read-out: activity (mortality)
Method: Solvent: 100 parts by weight acetone
To produce a suitable preparation of active compound, 1 part by weight of active compound is mixed with the stated amount of solvent, and the concentrate is diluted with water to the desired concentration.
50 μL compound solution is filled in microtiter plates and 150 μL IPL41 insect medium (33%+15% sugar) is added to obtain a total volume of 200 μL per well. Afterwards the plates are sealed with parafilm through which a mixed population of the green peach aphid (Myzus persicae) can suck on the compound preparation.
(§1) After 5 days mortality in % is determined. 100% means all aphids have been killed and 0% means none of the aphids have been killed.

[3] = test system: adult brown dog ticks (Rhipicephalus sanguineus); assay: Rhipicephalus sanguineus in-vitro contact test, adult brown dog ticks; conditions: application rate 5 μg/cm^2 (=500 g/ha), after 48 hours, read-out: activity (efficacy: ticks dead or moribund)
Method: Rhipicephalus sanguineus—In-Vitro Contact Tests with Adult Brown Dog Ticks
(§2) 9 mg compound is solved in 1 mL acetone and diluted with acetone to the desired concentration. 250 μL of the test solution is filled in 25 mL glass test tubes and homogeneously distributed on the inner walls by rotation and tilting on a shaking device (2 h at 30 rpm). With a compound concentration of 900 ppm, an inner surface of 44.7 cm^2 and a homogeneous distribution, a dose of 5 μg/cm^2 is achieved.
After the solvent has evaporated, each test tube is filled with 5-10 adult brown dog ticks (Rhipicephalus sanguineus), closed with a perforated lid and incubated in a lying position at room temperature and relative humidity. After 48 hours efficacy is determined. The ticks are patted on the ground of the tubes and are incubated on a heating plate at 45-50° C. for at most 5 minutes. Immotile or uncoordinated moving ticks, which are not able to escape the heat by climbing upwards, are marked as dead or moribund.
An efficacy of 100% means all ticks are dead or moribund; 0% means no ticks are dead or moribund.

[4] = test system: Rhipicephalus (Boophilus) microplus larvae (strain Parkhurst, resistant against synthetic pyrethroids); assay: Rhipicephalus (Boophilus) microplus in-vitro contact test, larval cattle tick; conditions: after 48 hours, read-out: activity (efficacy: larvae dead or moribund); for pest or weed control at 1 µg/cm2, 100 g/ha: application rate 1 μg/cm^2 (=100 g/ha); for pest or weed control at 5 µg/cm2, 500 g/ha: application rate 5 μg/cm^2 (=500 g/ha)
Method: Rhipicephalus (Boophilus) microplus—In-Vitro Contact Tests Larval Cattle Tick (Strain Parkhurst, Resistant Against Synthetic Pyrethroids)
9 mg compound is solved in 1 ml acetone and diluted with acetone to the desired concentration. 250 μL of the test solution is filled in 25 mL glass test tubes and homogeneously distributed on the inner walls by rotation and tilting on a shaking device (2 h at 30 rpm). With a compound concentration of 900 ppm, an inner surface of 44.7 cm^2 and a homogeneous distribution, a dose of 5 μg/cm^2 is achieved.
After the solvent has evaporated, each test tube is filled with 20-50 cattle tick larvae (Rhipicephalus microplus), closed with a perforated lid and incubated in a horizontal position at 85% relative humidity and 27° C. in an incubator. After 48 hours efficacy is determined. The larvae are patted on the ground of the tubes and negative geotactic behavior is recorded.
An efficacy of 100% means all larvae are dead or moribund; 0% means no larvae are dead or moribund.

[5] = test system: larvae of the banded cucumber beetle (Diabrotica balteata); assay: Diabrotica balteata spray test; conditions: 168 h, application rate 100 g/ha (=32 μg/well), after 7 days, wheat seeds, read-out: activity (efficacy: seedlings grown)
Method: Diabrotica balteata—Spray Test
(§3) To produce a suitable preparation of active compound, 1 part by weight of active compound is mixed with the stated amount of solvent, and the concentrate is diluted with water, containing an emulsifier concentration of 1000 ppm, to the desired concentration. Further test concentrations are prepared by dilution with emulsifier containing water.
Soaked wheat seeds (Triticum aestivum) are placed in a multiple well plate filled with agar and some water and are incubated for 1 day to germinate (5 seeds per well). The germinated wheat seeds are sprayed with a test solution containing the desired concentration of the active ingredient. Afterwards each unit is infected with 10-20 larvae of the banded cucumber beetle (Diabrotica balteata).
After 7 days efficacy in % is determined. 100% means all the seedlings have grown up like in the untreated, uninfected control; 0% means none of the seedlings have grown.

[6] = test system: fall armyworm larvae (Spodoptera frugiperda); assay: Spodoptera frugiperda spray test; conditions: 168 h, application rate 100 g/ha, after 7 days, maize leaf sections
Method: Spodoptera frugiperda—Spray Test
(§4) To produce a suitable preparation of active compound, 1 part by weight of active compound is mixed with the stated amount of solvents and is diluted with water, containing an emulsifier concentration of 1000 ppm, to the desired concentration. Further test concentrations are prepared by dilution with emulsifier containing water.
Maize (Zea mays) leaf sections are sprayed with a preparation of the active ingredient of the desired concentration. Once dry, the leaf sections are infested with fall armyworm larvae (Spodoptera frugiperda).
After 7 days mortality in % is determined. 100% means all caterpillars have been killed and 0% means none of the caterpillars have been killed.

[7] = test system: larvae of the southern green stink bug (Nezara viridula); assay: Nezara viridula spray test; conditions: 96 h, after 4 days, barley plants; for mortality at 100 g/ha: application rate 100 g/ha; for mortality at 500 g/ha: application rate 500 g/ha, read-out: activity (mortality)
Method: Nezara viridula—Spray Test
as §3
Barley plants (Hordeum vulgare) are sprayed with a test solution containing the desired concentration of the active ingredient and are infested with larvae of the southern green stink bug (Nezara viridula).
After 4 days mortality in % is determined. 100% means all the stink bugs have been killed; 0% means none of the stink bugs have been killed.

[8] = test system: adult cat fleas (Ctenocephalides felis); assay: Ctenocephalides felis in-vitro contact test, adult cat flea; conditions: application rate 5 μg/cm^2 (=500 g/ha), after 48 hours, read-out: activity (efficacy: fleas dead or moribund)
Method: Ctenocephalides felis—In-Vitro Contact Tests Adult Cat Flea
as §2
After the solvent has evaporated, each test tube is filled with 5-10 adult cat fleas (Ctenocephalides felis), closed with a perforated lid and incubated in a lying position at room temperature and relative humidity. After 48 hours efficacy is determined. The fleas are patted on the ground of the tubes and are incubated on a heating plate at 45-50° C. for at most 5 minutes. Immotile or uncoordinated moving fleas, which are not able to escape the heat by climbing upwards, are marked as dead or moribund.
An efficacy of 100% means all fleas are dead or moribund; 0% means no fleas are dead or moribund.

[9] = test system: green peach aphid (Myzus persicae); assay: Myzus persicae spray test; conditions: foliar, 120 h, application rate 100 g/ha, after 5 days, Chinese cabbage leaf disks, read-out: activity (mortality)
Method: Myzus persicae—Spray Test
as §4
Chinese cabbage (Brassica pekinensis) leaf disks infected with all instars of the green peach aphid (Myzus persicae), are sprayed with a preparation of the active ingredient of the desired concentration.
as §1

SMILES	pest or weed control at 0.004 mg [1] [%]	mortality at 4 ppm [2] [%]	pest or weed control at 5 µg/cm2, 500 g/ha [3] [%]	pest or weed control at 1 µg/cm2, 100 g/ha [4] [%]	pest or weed control at 5 µg/cm2, 500 g/ha [4] [%]	pest or weed control at 32 µg/disc, 100 g/ha [5] [%]	mortality at 100 g/ha [6] [%]	mortality at 500 g/ha [7] [%]	further results
Cc1nc([C@H](C)NC(=O)c2cc(Cl)cc(C(F)(F)F)c2)n(-c2ccc(C(=O)N3CC[C@H](O)C3)cn2)n1 [Example I-25]	100	100	–	–	–	–	–	–	–
Cc1nc([C@H](C)NC(=O)c2cc(C(F)(F)F)cc(C(F)(F)F)c2)n(-c2ncc(C(=O)N3C[C@@H](C)O[C@H](C)C3)s2)n1 [Example I-106]	100	100	100	100	100	100	100	–	–
C[C@H](NC(=O)c1cc(C(F)(F)F)cc(C(F)(F)F)c1)c1ncnn1-c1ccc(C(=O)N2CCNC(=O)C2)cn1 [Example I-65]	–	100	–	–	–	–	–	–	mortality at 100 g/ha [7]: 90%
C[C@H](NC(=O)c1cc(Cl)cc(S(=O)(=O)C2CC2)c1)c1nc(C2CC2)nn1-c1ccc(C(=O)N2CCOCC2)cn1 [Example I-90]	–	–	–	–	–	–	100	100	–
C[C@H](NC(=O)c1cc(Cl)cc(C(F)(F)F)c1)c1ncnn1-c1ccc(C(=O)N2CCCOCC2)cn1 [Example I-34]	100	–	100	100	100	–	–	–	–
CCc1nc([C@H](C)NC(=O)c2cc(Cl)cc(S(=O)(=O)C3CC3)c2)n(-c2ccc(C(=O)N3C[C@@H](C)O[C@@H](C)C3)cn2)n1 [Example I-133]	–	–	–	–	–	–	100	100	–
C[C@@H]1CN(C(=O)c2ccc(-n3ncnc3[C@H](C)NC(=O)c3cc(Cl)cc(S(C)(=O)=O)c3)nc2)C[C@@H](C)O1 [Example I-121]	–	100	–	–	–	–	–	100	mortality at 100 g/ha [7]: 90%
Cc1nc([C@H](C)NC(=O)c2cc(C(F)(F)F)cc(C(F)(F)F)c2)n(-c2ncc(C(=O)N3CCCC3)s2)n1 [Example I-16, N-[(1S)-1-{3-methyl-1-[5-(pyrrolidin-1-ylcarbonyl)-1,3-thiazol-2-yl]-1H-1,2,4-triazol-5-yl}ethyl]-3,5-bis(trifluoromethyl)benzamide]	80	100	–	100	100	100	100	–	–
CC1CCN(C(=O)c2ccc(-n3ncnc3[C@H](C)NC(=O)c3cc(Cl)cc(C(F)(F)F)c3)nc2)CC1 [Example I-38]	100	–	80	–	–	100	–	–	–
CCc1nc([C@H](C)NC(=O)c2cc(Br)cc(OC(F)(F)F)c2)n(-c2ccc(C(=O)N3C[C@@H](C)O[C@@H](C)C3)cn2)n1 [Example I-135]	–	–	100	100	100	100	100	100	pest or weed control at 5 µg/cm2 [8]: 100%
C[C@H](NC(=O)c1cc(C(F)(F)F)cc(C(F)(F)F)c1)c1ncnn1-c1ccc(C(=O)N2CCC(O)CC2)cn1 [Example I-6]	100	100	80	90	–	–	–	–	–
C[C@H](NC(=O)c1cc(C(F)(F)F)cc(C(F)(F)F)c1)c1ncnn1-c1ccc(C(=O)N(C)C2CCN(C)CC2)cn1 [Example I-62]	–	–	–	–	–	80	–	100	–
C[C@H](NC(=O)c1cc(Cl)cc(S(C)(=O)=O)c1)c1ncnn1-c1ccc(C(=O)N2CCSCC2)cn1 [Example I-120]	–	100	–	–	–	80	–	–	mortality at 100 g/ha [7]: 90%
Cc1nc([C@H](C)NC(=O)c2cc(Cl)cc(C(F)(F)F)c2)n(-c2ccc(C(=O)N3CC[C@@H](O)C3)cn2)n1 [Example I-26]	100	100	–	–	–	–	–	–	–
C[C@H](NC(=O)c1cc(C(F)(F)F)cc(C(F)(F)F)c1)c1ncnn1-c1ccc(C(=O)N2CCC2)cn1 [Example I-10]	100	100	100	100	100	–	100	–	mortality at 100 g/ha [9]: 90%; pest or weed control at 5 µg/cm2 [8]: 100%
